Assay results: ChEMBL document CHEMBL5647700, “Crystal structure of an angiogenesis inhibitor bound to the FGF receptor tyrosine kinase domain” (EMBO J, 1998)
pIC50: −log10 of the molar value.

Experiments:
[1] = Inhibition of VEGFR2 (unknown origin) expressed in mouse NIH/3T3 cells assessed as reduction in aFGF and heparin-induced autophosphorylation incubated for 5 mins before stimulation for 5 mins with aFGF and heparin by SDS-PAGE and immunoblot method; format: cell-based; settings: NIH3T3
[2] = molecular target: Dual specificity mitogen-activated protein kinase kinase; MEK1/2 (Homo sapiens, UniProt P36507+Q02750); assay: Inhibition of MEK (unknown origin) in presence of ATP; format: protein assay
[3] = Toxicity in bFGF-induced Swiss Webster mouse angiogenesis model at 1 mg/kg, ip starting 3 days prior to or on the day of pellet implantation and then daily until day 5 post-implantation by Corneal neovascularization assay; format: organism-based; settings: in vivo, 192 h, time 8 day
[4] = molecular target: Fibroblast growth factor receptor 1 (Mus musculus, UniProt P16092); assay: Inhibition of FGFR1 autophosphorylation in mouse NIH/3T3 cells assessed as reduction in aFGF and heparin-induced autophosphorylation incubated for 5 mins before stimulation for 5 mins with aFGF and heparin by SDS-PAGE and immunoblot method; format: cell-based
Chain of Fibroblast growth factor receptor 1 (P16092 whole entry): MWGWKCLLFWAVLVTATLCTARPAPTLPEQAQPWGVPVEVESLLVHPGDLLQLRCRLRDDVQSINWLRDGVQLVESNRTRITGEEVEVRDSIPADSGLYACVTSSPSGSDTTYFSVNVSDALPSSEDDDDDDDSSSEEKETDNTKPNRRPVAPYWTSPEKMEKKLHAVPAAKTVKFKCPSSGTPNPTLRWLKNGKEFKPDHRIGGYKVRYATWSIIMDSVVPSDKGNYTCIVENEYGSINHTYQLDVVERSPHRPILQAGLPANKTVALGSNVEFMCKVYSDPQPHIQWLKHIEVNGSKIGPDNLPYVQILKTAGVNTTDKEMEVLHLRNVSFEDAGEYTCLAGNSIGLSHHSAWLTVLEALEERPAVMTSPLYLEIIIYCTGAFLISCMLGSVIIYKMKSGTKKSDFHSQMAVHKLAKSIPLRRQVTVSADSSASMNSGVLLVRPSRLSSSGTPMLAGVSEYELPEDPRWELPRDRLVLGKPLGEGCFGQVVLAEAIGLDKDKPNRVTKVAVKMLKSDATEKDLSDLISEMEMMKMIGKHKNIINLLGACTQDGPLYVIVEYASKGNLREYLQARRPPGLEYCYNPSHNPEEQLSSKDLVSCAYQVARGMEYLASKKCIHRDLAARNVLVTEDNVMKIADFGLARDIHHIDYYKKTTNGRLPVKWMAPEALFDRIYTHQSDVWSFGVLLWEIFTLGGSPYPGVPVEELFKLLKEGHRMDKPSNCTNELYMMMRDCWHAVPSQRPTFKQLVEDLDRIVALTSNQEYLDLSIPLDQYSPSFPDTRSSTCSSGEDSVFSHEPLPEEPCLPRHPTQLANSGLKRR

Mus musculus [5] = assay: Inhibition of VEGF-induced neovascularization in Swiss Webster mouse angiogenesis model at 2 mg/kg, ip starting 3 days prior to or on the day of pellet implantation and then daily until day 5 post-implantation by Corneal neovascularization assay; format: functional; settings: 192 h, time 8 day
[6] = Inhibition of PDGFR cytoplasmic domain (unknown origin) in presence of ATP; set-up: species or system Homo sapiens
[7] = Inhibition of PKCalpha/beta/gamma isotype mixtures (unknown origin) in presence of ATP; set-up: species or system Homo sapiens
Mus musculus [8] = assay: Inhibition of FGF-induced neovascularization in Swiss Webster mouse angiogenesis model at 1 mg/kg, ip starting 3 days prior to or on the day of pellet implantation and then daily until day 5 post-implantation by Corneal neovascularization assay; format: functional; settings: 192 h, time 8 day
[9] = molecular target: Proto-oncogene tyrosine-protein kinase Src (Homo sapiens, UniProt P12931); assay: Inhibition of c-SRC (unknown origin) in presence of ATP
Chain of Proto-oncogene tyrosine-protein kinase Src (P12931 2-536 limits assumed): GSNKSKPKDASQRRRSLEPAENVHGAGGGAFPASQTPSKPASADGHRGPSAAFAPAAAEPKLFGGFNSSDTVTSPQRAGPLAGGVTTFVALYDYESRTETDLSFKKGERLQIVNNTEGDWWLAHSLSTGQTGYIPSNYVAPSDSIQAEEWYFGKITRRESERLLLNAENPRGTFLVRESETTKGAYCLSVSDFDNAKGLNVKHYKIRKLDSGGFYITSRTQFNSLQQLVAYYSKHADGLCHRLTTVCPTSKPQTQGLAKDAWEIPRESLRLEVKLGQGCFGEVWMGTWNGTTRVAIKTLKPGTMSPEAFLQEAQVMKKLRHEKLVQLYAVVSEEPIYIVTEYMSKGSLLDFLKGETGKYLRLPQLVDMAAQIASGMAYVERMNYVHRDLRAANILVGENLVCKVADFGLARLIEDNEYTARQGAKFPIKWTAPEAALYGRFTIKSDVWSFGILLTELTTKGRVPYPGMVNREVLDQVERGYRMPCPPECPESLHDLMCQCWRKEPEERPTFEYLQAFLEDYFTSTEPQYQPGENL

Compound: CCN(CC)CCCCNc1ncc2cc(-c3cc(OC)cc(OC)c3)c(NC(=O)NC(C)(C)C)nc2n1 [PD-173074]
- pIC50 [1]: 7.00
- IC50 [2]: > 50 µM
- Activity [3]: Non-Toxic
- pIC50 [4]: 9.00
- inhibition in vivo at 2 mg/kg (Mus musculus [5]): 81%
- pIC50 [6]: 4.75
- pIC50 [7]: < 4.30
- inhibition in vivo at 1 mg/kg (Mus musculus [8]): 86%
- pIC50 [9]: 4.70
